Legend:
[1] = tested on: rat models with hand-foot skin reaction; assay: Rat models with hand-foot skin reaction, topical ointment (incidence rate, histology, immunohistochemistry); type: in vivo, SD rats; settings: for Incidence rate, left paw: once daily 30 days; for Incidence rate, right paw: right paw with blank matrix ointment (self-control)
Experimental: After adaptive feeding for one week, SD rats (with a body weight of approximately 200 g) were randomly divided into groups with balanced body weight, with 12 rats in each group. Modeling drugs (including sorafenib, erlotinib, afatinib, and osimertinib) were respectively dissolved in a solution containing 5% of DMSO, 45% of PEG400, and 50% of H2O, and the modeling drugs were diluted to required concentrations and then administered once daily by gavage at doses shown in Table 3. After administration by gavage for 1 hour, 0.05 g of ointments containing different mass proportions of test compounds were evenly applied to left paws of the rats, a blank matrix ointment was applied to right paws of the rats to serve as a self-control, and no ointment was applied to the rats in a blank control group. After drug application, four limbs were continuously immobilized for 2 hours, then wiped with clean water to remove the residual drugs, removed from immobilization, and restored to free movement. The modeling drugs, the blank matrix ointment, and the ointments containing the test compounds were all administered once daily. After continuous administration for 30 days, the rats were euthanized, and paw plantar skin tissues were collected, fixed in 10% neutral formalin, […]. The ointments for the test compounds were prepared by mixing the compounds, white beeswax, white petrolatum, and light liquid paraffin in specific ratios (weight ratios of 3 ointments were respectively 1:18:58:23, 3:18:57:22, and 10:20:40:30). The blank matrix ointment was prepared by mixing white beeswax, white petrolatum, and light liquid paraffin in a specific ratio (weight ratio of 18:60:22).
Tissue staining: After dewaxing and rehydration, the paw plantar skin tissue sections of the above rats were stained in a hematoxylin solution for several minutes, cleaned, and placed in 1% acid alcohol for soaking until the sections faded to light blue-red. After cleaning with running water for 5 minutes, the sections were stained with eosin for 2-3 minutes, cleaned to remove excess dyes, dehydrated, then permeabilized by adding xylene for several minutes, and sealed and fixed with a neutral resin. The stratum corneum was observed under an optical microscope, and the thickness of the epidermal stratum corneum was measured using Dmetrix software.
Immunohistochemical staining: After dewaxing and hydration, the paw plantar skin tissue sections of the above rats were incubated with 3% H2O2 at room temperature for 30 minutes and blocked with 10% goat serum for 30 minutes after antigen retrieval. A KRT1 antibody (Abcam, ab93652) and a Loricrin antibody (Abcam, ab183646) were added dropwise, the sections were incubated overnight at 4°C, and an HRP secondary antibody (ZSGB-BIO, PV-6001) and a DAB kit (ZSG-BIO, ZLI9017) were added for color development. The sections were re-stained with hematoxylin, cleaned, and sealed and fixed with a neutral resin, and the expression amounts of KRT1 and Loricrin were observed under an optical microscope.
An incidence rate calculation method involves a proportion of animals in each group meeting the above criteria for determining successful modeling, that is, incidence rate = (number of successfully modeled rats/total number of rats in the group)*100%. […]

[2] = Pharmacokinetic study after single topical administration of ointment to the skin of Bama miniature pigs (LC-MS/MS); type: in vivo; settings: pig, 3% suspension ointment, 20 mg/cm^2, mean
Experimental: 2 Bama miniature pigs respectively received an ointment containing the compound of formula (I) by single topical application to the dorsal and abdominal skin at 20 mg/cm^2 (3% suspension ointment), with a total application area of 6.8% of a body surface area, and a ratio of application areas between the dorsal and abdominal skin being approximately 1:1. The plasma concentration and skin tissue homogenate concentration of the compound of formula (I) were determined by an LC-MS/MS method.

[3] = Pharmacokinetic study after single topical administration of ointment to the skin of SD rats (LC-MS/MS); type: in vivo; settings: rat, 20 mg/cm^2, SD rats, 20 mg/cm^2, 20 cm^2, mean
Experimental: 6 SD rats were divided into two groups, with 3 rats per group, where one group received an ointment containing the compound of formula (I) by single topical application to the dorsal skin at 20 mg/cm^2 (3% suspension ointment), with an application area of 20 cm^2, and the other group received an ointment containing the compound of formula (I) by single topical application to the dorsal skin at 20 mg/cm^2 (10% suspension ointment), with an application area of 20 cm^2. The plasma concentration and dorsal skin tissue homogenate concentration of the compound of formula (I) were determined by an LC-MS/MS method.

[4] = Afatinib 50 mg/kg model, 1% ointment on left paw
[5] = Afatinib 50 mg/kg model, 3% ointment on left paw
[6] = Afatinib 50 mg/kg model, 10% ointment on left paw
[7] = Erlotinib 70 mg/kg model, 1% ointment on left paw
[8] = Erlotinib 70 mg/kg model, 3% ointment on left paw
[9] = Erlotinib 70 mg/kg model, 10% ointment on left paw
[10] = Osimertinib 60 mg/kg model, 1% ointment on left paw
[11] = Osimertinib 60 mg/kg model, 3% ointment on left paw
[12] = Osimertinib 60 mg/kg model, 10% ointment on left paw
[13] = Sorafenib 100 mg/kg model, 1% ointment on left paw
[14] = Sorafenib 100 mg/kg model, 3% ointment on left paw
[15] = Sorafenib 100 mg/kg model, 10% ointment on left paw

## NC(=O)[C@H]1CCCc2c1[nH]c1ccc(Cl)cc21 [Compound of formula (I), (S)-6-chloro-2,3,4,9-tetrahydro-1H-carbazole-carboxamide]
[1]; [4]
  Incidence rate, left paw: 3/12 (25%)
  Incidence rate, right paw: 9/12 (75%)
[1]; [5]
  Incidence rate, left paw: 2/12 (17%)
  Incidence rate, right paw: 4/12 (33%)
[1]; [6]
  Incidence rate, left paw: 0/12 (0%)
  Incidence rate, right paw: 3/12 (25%)
[1]; [7]
  Incidence rate, left paw: 3/12 (25%)
  Incidence rate, right paw: 10/12 (83%)
[1]; [8]
  Incidence rate, left paw: 2/12 (17%)
  Incidence rate, right paw: 5/12 (42%)
[1]; [9]
  Incidence rate, left paw: 1/12 (8%)
  Incidence rate, right paw: 4/12 (33%)
[1]; [10]
  Incidence rate, left paw: 2/12 (17%)
  Incidence rate, right paw: 8/12 (67%)
[1]; [11]
  Incidence rate, left paw: 2/12 (17%)
  Incidence rate, right paw: 4/12 (33%)
[1]; [12]
  Incidence rate, left paw: 0/12 (0%)
  Incidence rate, right paw: 3/12 (25%)
[1]; [13]
  Incidence rate, left paw: 2/12 (17%)
  Incidence rate, right paw: 9/12 (75%)
[1]; [14]
  Incidence rate, left paw: 2/12 (17%)
  Incidence rate, right paw: 4/12 (33%)
[1]; [15]
  Incidence rate, left paw: 0/12 (0%)
  Incidence rate, right paw: 4/12 (33%)
[2]; read-out: Drug concentration in dorsal dermis skin tissues at 24 h
  concentration at 24 h: 88300 ng/g
[2]; abdominal skin tissue, read-out: Drug concentration in abdominal skin tissues at 24 h
  concentration at 24 h: 111000 ng/g
[2]; plasma, read-out: Plasma drug concentration at 24 h
  concentration at 24 h: 17.7 ng/mL
[2]; topical or ocular, plasma
  AUC(0-t): 304 ng·h/mL
  Cmax: 21.6 ng/mL
  MRT inf: 15.2 h
  Tmax: 16 h
[3]; dorsal skin tissue homogenate, dorsal skin homogenate, 3% suspension ointment, read-out: Drug concentration in skin tissues at 24 h
  concentration at 24 h: 161000 ng/g
[3]; dorsal skin tissue homogenate, dorsal skin homogenate, 10% suspension ointment, read-out: Drug concentration in skin tissues at 24 h
  concentration at 24 h: 800000 ng/g
[3]; plasma, 3% suspension ointment, read-out: Plasma drug concentration at 24 h
  concentration at 24 h: 3.21 ng/mL
[3]; plasma, 10% suspension ointment, read-out: Plasma drug concentration at 24 h
  concentration at 24 h: 17.3 ng/mL

From patent EP4789666A1, “RNA M6A REGULATOR COMPOSITION, PREPARATION METHOD THEREFOR, AND USE THEREOF” (SHANGHAI MERNA THERAPEUTICS CO. LTD, priority 2023, dated 2025)
